Tests used:
[1] = target: α6(R100H)β2γ2 GABAA receptor (Homo sapiens, UniProt P18507+P47870+Q16445, R119H); assay: Midazolam potentiation of EC10 GABA currents, whole-cell patch clamp, HEK293T; assay type: cell-based; set-up: expressed in transfected cells; host or cells: HEK293T
Excerpt: (§1) Human (Homo sapiens) GABAA subunits (α1‐6, β2, γ2s) were subcloned into pcDNA3.1+ vectors with a cytomegalovirus (CMV) promoter. The hβ2 and hα3 sequences were humanized rat (Rattus norvegicus) cDNA with amino acid substitutions made to match the human protein sequence. The α1‐3, α5, β2, and γ2s subunits were a generous gift from Neil L. Harrison (Columbia University Medical Center, NY). The α4 subunit was obtained from GenScript (Piscataway, NJ), and the α6 subunit was a generous gift from Robert L. McDonald (Vanderbilt University, TN). All point mutations (listed in Figure 1C) were introduced using the QuikChange Lightening site‐directed mutagenesis kit (Agilent Technologies, Santa Clara, CA) according to the manufacturer's instructions and were confirmed by sequencing (Eurofins MWG Operon, Louisville, KY).
(§2) Human embryonic kidney cells containing the SV40 T‐antigen (HEK293T) were acquired from American Type Culture Collection (ATCC®, Manassas, VA), catalogue number, CRL3216. HEK293T cells were maintained at 37°C and 5% CO2 in Eagle Minimum Essential Medium (MEM) supplemented with 5% fetal bovine serum (Atlanta Biologicals Inc., Flowery Branch, GA), 40 μM L‐glutamine, 100 U/mL penicillin and 0.1 mM streptomycin. Cells were passaged regularly when they reached 70% confluency using trypsin. Cells were not passaged more than 22 times. New cells were revived from frozen stocks at passage 2‐4. Cells used for in vitro electrophysiology experiments were grown on poly‐D‐lysine‐coated glass coverslips (No.2, VWR, Radnor, PA) and transfected with X‐tremeGENE (Roche Diagnostics, Indianapolis, IN) with the desired receptor subunit cDNAs at a 1:1:1 ratio to express αxβ2γ2s receptors (2 μg total cDNA) and with 0.5 μg green fluorescent protein (GFP) as an expression marker. The γ2s incorporation into receptors was tested with zinc inhibition assays regularly.24 Patch clamp experiments were performed on cells at 24‐72 hours post‐transfection. All experiments were performed at 22°C. Experiments consisted of at least five cells recorded per day from at least two transfections across 3‐4 days to control for cell health and transfection efficiency. At least three cells expressing wild‐type receptors were recorded on days that mutant receptors were tested to provide a time‐matched expression control. All reagents were purchased from Sigma‐Aldrich (St. Louis, MO) unless otherwise stated.
(§3) Extracellular solution contained 161 mM NaCl, 3 mM KCl, 1 mM MgCl2, 1.5 mM CaCl2, 10 mM HEPES, and 6 mM D‐glucose, adjusted to pH 7.4 with NaOH (320‐330 mOsm). […] The perfusion system was controlled by protocols written in pClamp 9 (Molecular Devices, LLC., Sunnyvale, CA). Whole‐cell currents were recorded at ‐60 mV, filtered at 100 Hz and sampled at 200 Hz with a MultiClamp 700B amplifier (Molecular Devices, LLC) and DigiData 1322A (Molecular Devices, LLC) digitizer. […] Cells were recorded with the midazolam protocol no more than two times to avoid desensitization and incomplete washout or irreversible modulation.
(§4) Recordings were analyzed using MATLAB (Math Works, Inc., Natick, MA). […] The maximum peak current, EC50 and Hill coefficient were estimated for assays from each cell. When Hill parameters are estimated from whole‐cell recordings, the changes in the parameters across receptor conditions can be ascribed to the following changes in receptor physiology. Changes in maximum current can be due to changes in the single‐channel conductance or the rate of desensitization. Changes in cell surface receptor expression can cause minor changes in maximum current, but are unlikely to occur in the time course of our experimental protocol. […] More often minor changes in the Hill coefficient are attributed to the altered homogeneity in the receptor population expressed by the HEK293T cell. For example, a shallower Hill coefficient could be caused by a shift in the population of receptors from mostly αβγ receptors to a combination of both αβ and αβγ receptors.

[2] = target: α6(P161T)β2γ2 GABAA receptor (Homo sapiens, UniProt P18507+P47870+Q16445, P180T); assay: as above; assay type: cell-based; set-up: expressed in transfected cells; host or cells: HEK293T; conditions: for Midazolam potentiation (%): α6(P161T)
Excerpt: as §1, §2, §3, §4

Sequence of α6(P161T)β2γ2 GABAA receptor (Q16445 20-453 P180T): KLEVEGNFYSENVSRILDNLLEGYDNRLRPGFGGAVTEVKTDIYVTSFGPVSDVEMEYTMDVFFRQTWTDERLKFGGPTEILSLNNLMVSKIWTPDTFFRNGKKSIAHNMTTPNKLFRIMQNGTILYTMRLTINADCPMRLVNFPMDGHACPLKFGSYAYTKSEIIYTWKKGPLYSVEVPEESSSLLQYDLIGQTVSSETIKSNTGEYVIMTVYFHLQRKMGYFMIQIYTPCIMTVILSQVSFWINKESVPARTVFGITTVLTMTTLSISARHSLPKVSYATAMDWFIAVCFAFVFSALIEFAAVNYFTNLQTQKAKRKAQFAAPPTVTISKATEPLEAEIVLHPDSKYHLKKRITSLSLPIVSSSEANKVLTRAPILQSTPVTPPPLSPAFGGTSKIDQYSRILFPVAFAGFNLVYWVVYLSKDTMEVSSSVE
Sequence of α6(P161T)β2γ2 GABAA receptor (P47870 26-474 isoform P47870-1 limits assumed, stated change not applied): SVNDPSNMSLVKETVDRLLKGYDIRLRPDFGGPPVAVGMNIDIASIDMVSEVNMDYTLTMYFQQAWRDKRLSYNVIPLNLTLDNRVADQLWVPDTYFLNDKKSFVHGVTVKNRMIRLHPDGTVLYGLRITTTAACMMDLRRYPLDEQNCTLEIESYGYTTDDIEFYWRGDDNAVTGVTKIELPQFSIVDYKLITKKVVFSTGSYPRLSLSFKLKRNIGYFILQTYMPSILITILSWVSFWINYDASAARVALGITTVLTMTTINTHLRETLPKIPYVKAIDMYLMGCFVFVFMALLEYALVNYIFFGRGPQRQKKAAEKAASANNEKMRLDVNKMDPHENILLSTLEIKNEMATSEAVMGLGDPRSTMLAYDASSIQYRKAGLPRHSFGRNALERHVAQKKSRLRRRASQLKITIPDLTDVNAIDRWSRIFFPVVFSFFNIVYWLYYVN
Sequence of α6(P161T)β2γ2 GABAA receptor (P18507 40-467 isoform P18507-1 limits assumed, stated change not applied): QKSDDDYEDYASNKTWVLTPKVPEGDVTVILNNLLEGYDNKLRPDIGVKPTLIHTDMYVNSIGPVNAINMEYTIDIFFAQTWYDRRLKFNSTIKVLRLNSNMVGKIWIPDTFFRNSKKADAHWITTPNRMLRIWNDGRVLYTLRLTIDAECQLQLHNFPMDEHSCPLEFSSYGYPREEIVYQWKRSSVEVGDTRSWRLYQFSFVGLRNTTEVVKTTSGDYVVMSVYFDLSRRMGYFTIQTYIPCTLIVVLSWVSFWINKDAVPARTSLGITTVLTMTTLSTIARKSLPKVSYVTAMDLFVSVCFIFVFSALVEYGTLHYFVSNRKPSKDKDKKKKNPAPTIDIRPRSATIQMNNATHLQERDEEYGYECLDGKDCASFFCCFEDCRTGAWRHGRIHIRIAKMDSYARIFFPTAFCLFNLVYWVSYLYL
Sequence of α6(R100H)β2γ2 GABAA receptor (Q16445 20-453 R119H): as the sequence (Q16445 20-453 P180T) above, with R100H, T161P counted along it
Sequence of α6(R100H)β2γ2 GABAA receptor (P47870 26-474 isoform P47870-1 limits assumed, stated change not applied): as the sequence (P47870 26-474 isoform P47870-1 limits assumed, stated change not applied) above
Sequence of α6(R100H)β2γ2 GABAA receptor (P18507 40-467 isoform P18507-1 limits assumed, stated change not applied): as the sequence (P18507 40-467 isoform P18507-1 limits assumed, stated change not applied) above

Cc1ncc2n1-c1ccc(Cl)cc1C(c1ccccc1F)=NC2 [midazolam] was tested, and the EC50 [1] was 41.9 ± 6.02 nM, the “Midazolam potentiation (%)” value ([1]; 10 nM MDZ + EC10 GABA, α6(R100H)) was 14.39 ± 8.03% and the “Midazolam potentiation (%)” value ([1]; 50 nM MDZ + EC10 GABA, α6(R100H)) was 45.91 ± 12.95%. The “Midazolam potentiation (%)” value ([1]; 100 nM MDZ + EC10 GABA, α6(R100H)) was 71.31 ± 17.31%, the “Midazolam potentiation (%)” value ([1]; 500 nM MDZ + EC10 GABA, α6(R100H)) was 85.96 ± 19.92% and the “Midazolam potentiation (%)” value ([1]; 1000 nM MDZ + EC10 GABA, α6(R100H)) was 79.13 ± 19.87%. For the same molecule, the “Max potentiation (%)” value ([1]; α6(R100H), Hill fit, midazolam 10-1000 nM + EC10 GABA) was 93.27 ± 22.84%, the Hill coefficient ([1]; α6(R100H), midazolam Hill fit) was 2.310 ± 0.56 and the “Midazolam potentiation (%)” value ([2]; 10 nM MDZ + EC10 GABA) was 7.52 ± 3.56%. The “Midazolam potentiation (%)” value ([2]; 50 nM MDZ + EC10 GABA) was 13.89 ± 3.99%, the “Midazolam potentiation (%)” value ([2]; 100 nM MDZ + EC10 GABA) was 24.46 ± 3.86% and the “Midazolam potentiation (%)” value ([2]; 500 nM MDZ + EC10 GABA) was 17.25 ± 3.52%. For the same molecule, the “Midazolam potentiation (%)” value ([2]; 1000 nM MDZ + EC10 GABA) was 16.98 ± 4.08% and the “responsiveness to midazolam potentiation” value ([2]; α6(P161T)β2γ2) was “failed to confer midazolam responsiveness”.

From PMC6234229, “The role of loops B and C in determining the potentiation of GABAA receptors by midazolam” (Pharmacology Research & Perspectives, 2018)
